Data as given in patent publication US9970938B2, “Use of BUBR1 as a biomarker of drug response to furazanobenzimidazoles” (Basilea Pharmaceutica AG, priority 2011, dated 2018).

Tests used:
Assay type in all cases: cell-based, human
[1] = system: A549; assay: Crystal Violet assay of BAL27862-resistant cell line versus parental line; details: 72 hours incubation, Crystal Violet
Text: (§1) BAL27862-resistant sublines of human non-small cell lung cancer (H460 ATCC reference HTB-177; A549 ATCC reference CCL-185), ovarian cancer (SKOV3 ATCC reference HTB-77) lines were generated by long-term selection in complete cell culture medium (RPMI-1640 containing 10% FCS; Sigma-Aldrich) by stepwise increasing concentrations of BAL27862. […] The resistant sublines were expanded at the highest tolerated BAL27862 concentration and subsequently frozen and stored in liquid nitrogen.
(§2) After medium was removed, cells were fixed and stained by adding 50 μl Crystal Violet Staining (0.2% Crystal Violet in 50% Methanol) per well. Plates were incubated for 1 hour at room temperature. Subsequently the stain was decanted and plates were washed 4 times with double-distilled water. Plates were air-dried for several hours. Stain was dissolved by adding 100 μl buffer (0.1 M Tris pH 7.5, 0.2% SDS, 20% Ethanol) per well and shaking the plates. Absorbance at 590 nm was measured using a SpectraMax M2e plate reader (Molecular Devices). Anti-proliferative IC50 values were calculated from concentration response curves using GraphPad Prism software. Resistance factors were calculated as a ratio of BAL27862 IC50 in the resistant line variant versus the IC50 in the parental line.

[2] = system: SKOV3 resistant 1; assay: as above; details: 72 hours incubation, Crystal Violet
Text: as §1, §2

[3] = system: H460; assay: as above; details: 72 hours incubation, Crystal Violet
Text: as §1, §2

[4] = system: SKOV3 resistant 2; assay: as above; details: 72 hours incubation, Crystal Violet
Text: as §1, §2

[5] = system: A549 NSCLC cells; assay: Immunofluorescent staining of microtubules in cultured cells; details: for microtubule phenotype of mitotic or G2/M arrested cells: 24 hours treatment, anti-alpha-tubulin staining; for microtubule phenotype, agent added for the last 4 hours of 24 hours BAL27862 treatment: combination
Method: A549 human non-small cell lung cancer (NSCLC, ATCC reference number CCL-185) cells, HeLa cervical cancer cells (ATCC reference number CCL-2) and SKBR3 breast carcinoma cells (ATCC reference number HTB-30) were seeded at densities of 50% on round microscope coverslips and cultured for 24 hours in RPMI-1640 containing 10% FCS (also referred to as FBS) at 37° C., 5% CO2. Compounds to be tested were dissolved in DMSO. The cell culture medium was replaced with medium containing the diluted compound(s) (paclitaxel, vinblastine, colchicine and nocodazole were purchased from Sigma-Aldrich) or vehicle. After treatment, coverslips were washed and cells were fixed in methanol/acetone (1:1) for 5 minutes at room temperature and subsequently incubated in blocking buffer (0.5% BSA and 0.1% TX-100 in PBS) for 30 minutes at room temperature. Specimens were then incubated with anti-alpha-tubulin antibody (Sigma, 1:2000) for 1 hour at room temperature in blocking buffer. After several washing steps cells were incubated with AlexaFluor-488 goat-anti-mouse IgG (Molecular Probes, 1:3000) for 1 hour at room temperature followed by several washing steps with blocking buffer. Specimens were then mounted with ProLong Gold antifade (Molecular Probes), sealed with nail polish and examined with a Leica immunofluorescence microscope. Images were captured with a cooled CCD-camera and processed by ImageJ software.

[6] = system: LXFL529; assay: Colony outgrowth assay, patient-derived tumour xenograft cells; set-up: key: S: BAL27862-sensitive tumour cells have IC70 values in the low nanomolar range; R: BAL27862-resistant tumour cells are defined by IC70 values >600 nanomolar; details: Lung
Method: (§3) Single cell suspensions of patient-derived tumour xenografts (maintained in nude mice) were prepared. For colony outgrowth assays, cells were plated in soft agar in 24-well plates according to the assay introduced by Hamburger & Salmon (Primary bioassay of human tumour stem cells, Science, 1977, 197:461-463). 2.0E+04-6.0E+04 cells in 0.2 mL medium containing 0.4% agar were plated out on a bottom layer of 0.75% agar. Test compounds were applied in 0.2 mL culture medium. Every 24-well plate contained untreated controls and samples in triplicates. Cultures were incubated at 37° C. and 7.5% CO2 for 5-28 days. 24 hours prior to analysis, vital colonies were stained with a solution of metabolizable tetrazolium salt (Alley M C et al, Life Sci. 1982, 31:3071-3078) and were counted with an automatic image analysis system (Omnicon 3600, Biosys GmbH).
(§4) Relative drug effects were expressed by the ratio of the mean number of colonies in the treated wells and the control wells. IC70-values were determined by plotting compound concentrations versus relative colony counts.

[7] = system: LXFA629; assay: as above; set-up: key: S: BAL27862-sensitive tumour cells have IC70 values in the low nanomolar range; R: BAL27862-resistant tumour cells are defined by IC70 values >600 nanomolar; details: Lung
Method: as §3, §4

[8] = system: GXF251; assay: as above; set-up: key: S: BAL27862-sensitive tumour cells have IC70 values in the low nanomolar range; R: BAL27862-resistant tumour cells are defined by IC70 values >600 nanomolar; details: Gastric
Method: as §3, §4

[9] = system: GXF97; assay: as above; set-up: key: S: BAL27862-sensitive tumour cells have IC70 values in the low nanomolar range; R: BAL27862-resistant tumour cells are defined by IC70 values >600 nanomolar; details: Gastric
Method: as §3, §4

[10] = system: tumour cells derived from patient-derived tumours from gastric and lung cancer; assay: Colony outgrowth assay, all tumour models
Method: as §3, with “GmbH). Relative drug effects were expressed by the ratio of the mean number of colonies in the treated wells and the control wells. IC70-values were determined by plotting compound concentrations versus relative colony counts.” for “GmbH).”

[11] = system: BAL27862-resistant cells; assay: Crystal Violet assay of BAL27862-resistant cell lines, all lines
Text: as §1, §2

SMILES	microtubule phenotype of mitotic or G2/M arrested cells [5]	microtubule phenotype, agent added for the last 4 hours of 24 hours BAL27862 treatment [5]	Sensitive (S)/Resistant (R), by IC70 in colony outgrowth [6]	Sensitive (S)/Resistant (R), by IC70 in colony outgrowth [7]	Sensitive (S)/Resistant (R), by IC70 in colony outgrowth [8]	Sensitive (S)/Resistant (R), by IC70 in colony outgrowth [9]	resistance or sensitivity to treatment, same ex vivo assay [10]	also measured
COc1cc2c(c(OC)c1OC)-c1ccc(OC)c(=O)cc1[C@@H](NC(C)=O)CC2 [Colchicine, colchicine]	mitotic microtubule phenotypes characteristic of these agents	no impact on the observed microtubule phenotype						Resistance factors (ratio of IC50 BAL27862-resistant cell line variant and IC50 parental cell line) [1]: 0.9; Resistance factors (ratio of IC50 BAL27862-resistant cell line variant and IC50 parental cell line) [2]: 2.0; Resistance factors (ratio of IC50 BAL27862-resistant cell line variant and IC50 parental cell line) [3]: 1.6; Resistance factors (ratio of IC50 BAL27862-resistant cell line variant and IC50 parental cell line) [4]: 2.8
COC(=O)Nc1nc2ccc(C(=O)c3cccs3)cc2[nH]1 [Nocodazole, nocodazole]	mitotic microtubule phenotypes characteristic of these agents	no impact on the observed microtubule phenotype						
CC[C@]1(O)C[C@@H]2CN(CCc3c([nH]c4ccccc34)[C@@](C(=O)OC)(c3cc4c(cc3OC)N(C)[C@H]3[C@@](O)(C(=O)OC)[C@H](OC(C)=O)[C@]5(CC)C=CCN6CC[C@]43[C@@H]65)C2)C1 [Vinblastine, vinblastine]	mitotic microtubule phenotypes characteristic of these agents	no impact on the observed microtubule phenotype	S	S	S	S	sensitive	
Nc1ccc(C(=O)Cn2c(-c3nonc3N)nc3ccccc32)cc1 [Compound B, 2-[2-(4-Amino-furazan-3-yl)-benzoimidazol-1-yl]-1-(4-amino-phenyl)-ethanone]	highly reproducible and distinct microtubule phenotype							
N#CCCNc1nonc1-c1nc2ccccc2n1CC(=O)c1ccc(N)nc1 [Compound C, 3-(4-{1-[2-(6-Amino-pyridin-3-yl)-2-oxo-ethyl]-1H-benzoimidazol-2-yl}-furazan-3-ylamino)-propionitrile]	highly reproducible and distinct microtubule phenotype							
CC(=O)O[C@H]1C(=O)[C@@]2(C)[C@H]([C@H](OC(=O)c3ccccc3)[C@]3(O)C[C@H](OC(=O)[C@H](O)[C@@H](NC(=O)c4ccccc4)c4ccccc4)C(C)=C1C3(C)C)[C@]1(OC(C)=O)CO[C@@H]1C[C@@H]2O [Paclitaxel, paclitaxel]	mitotic microtubule phenotypes characteristic of these agents	no impact on the observed microtubule phenotype	R (BAL27862-resistant tumour cells are defined by IC70 values >600 nanomolar)	R (BAL27862-resistant tumour cells are defined by IC70 values >600 nanomolar)	R (BAL27862-resistant tumour cells are defined by IC70 values >600 nanomolar)	R (BAL27862-resistant tumour cells are defined by IC70 values >600 nanomolar)	resistant	response of BAL27862-resistant cells versus parental [11]: increased sensitivity
